{"source": "patent US9623012B2", "about": "“Formulation comprising benzothiazolone compound” (priority 2013, dated 2017)", "key": {"human 5-HT2C receptor": {"biological_target": "T1, human 5-HT2C receptor (Homo sapiens, UniProt P28335)", "T1 construct": "purchased Biosignal Packard, USA; host or cells: CHO cell membranes", "T1 sequence (P28335 33-458)": "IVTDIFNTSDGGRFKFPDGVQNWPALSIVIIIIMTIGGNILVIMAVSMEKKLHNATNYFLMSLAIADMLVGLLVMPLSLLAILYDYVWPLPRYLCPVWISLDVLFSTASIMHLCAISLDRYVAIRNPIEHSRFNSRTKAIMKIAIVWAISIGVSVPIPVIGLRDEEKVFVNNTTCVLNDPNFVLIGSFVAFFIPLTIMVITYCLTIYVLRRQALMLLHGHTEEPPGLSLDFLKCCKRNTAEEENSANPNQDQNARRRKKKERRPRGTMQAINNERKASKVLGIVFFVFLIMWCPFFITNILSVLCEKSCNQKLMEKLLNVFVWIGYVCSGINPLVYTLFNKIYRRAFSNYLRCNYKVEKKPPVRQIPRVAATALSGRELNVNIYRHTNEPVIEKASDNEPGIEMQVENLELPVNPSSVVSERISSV", "test": "3H-Mesulergine binding to hr5-HT2C CHO cell membranes", "details": "3H-Mesulergine 1 nM, kind of constant not given", "description": "Non-specific binding is evaluated in the presence of 1 μM Mesulergine. Fifty μL each of membrane, ligand and compound in a total volume of […] are incubated in 96-well plates for 60 min at 22° C. in a buffer containing 50 mM Tris, 0.1% ascorbic acid, 10 μM Pargyline, pH 7.7. The plates are filtrated, washed 3 times in ice-cold 50 mM Tris, dried and measured in Topcount."}, "[1]": {"biological_target": "T2, Serotonin 5-HT2C receptor (Homo sapiens, UniProt P28335)", "T2 construct": "expressed in transfected cells; host or cells: CHO-K1 cells coexpressing mitochondrial apoaequorin and Gα16", "T2 sequence (P28335 33-458)": "T1 sequence (P28335 33-458)", "test": "Aequorin agonist assay in CHO-K1 cells expressing Serotonin 5-HT2C", "assay_type": "cell-based", "details": "aequorin luminescence, agonist mode", "protocol": "CHO-K1 cells coexpressing mitochondrial apoaequorin, recombinant Serotonin 5-HT2Cne and the promiscuous G protein Gα16, grown to mid-log phase in culture media without antibiotics were detached with PBS-EDTA, centrifuged and resuspended in assay buffer (DMEM/HAM's F12 with HEPES, without phenol red+0.1% BSA protease free) at a concentration of 1×10^6 cells/ml. Cells were incubated at room temperature for at least 4 h with coelenterazine h. […] For agonist testing, 50 μL of cell suspension were mixed with 50 μL of test or reference agonist in a 96-well plate. The resulting emission of light is recorded using Hamamatsu Functional Drug Screening System 6000 (FDSS 6000) luminometer. Agonist activity of test compound was expressed as a percentage of the activity of the reference agonist at its EC100 concentration."}, "[2]": {"biological_target": "human β2 adrenoceptor (β2 AR) (Homo sapiens, UniProt P07550)", "sequence (P07550 whole entry)": "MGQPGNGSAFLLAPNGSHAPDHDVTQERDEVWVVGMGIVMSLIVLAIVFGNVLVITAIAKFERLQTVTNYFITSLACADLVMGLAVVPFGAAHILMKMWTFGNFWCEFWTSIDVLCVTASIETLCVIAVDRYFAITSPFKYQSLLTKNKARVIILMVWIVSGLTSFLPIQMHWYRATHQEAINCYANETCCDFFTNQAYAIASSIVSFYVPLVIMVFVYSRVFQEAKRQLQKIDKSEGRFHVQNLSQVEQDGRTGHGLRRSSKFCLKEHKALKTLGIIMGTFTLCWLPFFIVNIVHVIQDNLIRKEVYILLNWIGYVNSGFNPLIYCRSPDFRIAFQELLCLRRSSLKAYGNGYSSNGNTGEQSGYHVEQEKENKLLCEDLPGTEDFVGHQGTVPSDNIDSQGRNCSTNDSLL", "test": "cAMP response in CHO cells stably transfected with human β2 adrenoceptor (Test 1)"}, "[3]": {"biological_target": "human β1 adrenoceptor (β1 AR) (Homo sapiens, UniProt P08588)", "sequence (P08588 whole entry)": "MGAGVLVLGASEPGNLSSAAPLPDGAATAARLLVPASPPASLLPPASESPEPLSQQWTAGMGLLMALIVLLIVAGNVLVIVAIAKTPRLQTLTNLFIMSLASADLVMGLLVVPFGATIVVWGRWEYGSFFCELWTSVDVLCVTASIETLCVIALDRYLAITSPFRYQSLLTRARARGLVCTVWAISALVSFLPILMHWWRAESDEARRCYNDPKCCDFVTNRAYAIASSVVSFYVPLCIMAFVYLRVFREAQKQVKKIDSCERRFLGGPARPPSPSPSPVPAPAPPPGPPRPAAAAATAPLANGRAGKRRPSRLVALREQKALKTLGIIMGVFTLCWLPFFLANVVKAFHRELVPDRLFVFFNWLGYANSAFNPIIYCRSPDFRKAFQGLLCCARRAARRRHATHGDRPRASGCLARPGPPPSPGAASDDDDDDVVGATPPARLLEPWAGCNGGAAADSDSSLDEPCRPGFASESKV", "test": "cAMP response in CHO cells stably transfected with human β1 adrenoceptor (Test 1)"}, "[4]": {"test": "Comparative solubility in H2O with pH adjustment", "assay_type": "physicochemical", "description": "The relative solubilities of the free base form and the acetate and glycolate salt forms of Compound A were analysed and the results are show in the table below. Solutions were titrated with addition of HCl or NaOH for pH adjustment. The improved aqueous solubilities of the acetate and glycolate salt forms relative to the free base form of Compound A make the acetate and glycolate salts of Compound A more suitable for subcutaneous injection or infusion."}, "Male Wistar Han IGS rats": {"system": "Male Wistar Han IGS rats", "assay_type": "in vivo", "details": "rat, s.c. minipump 4 weeks; formoterol 0.003-0.03, Compound A 0.01-0.1 mg/kg/day", "protocol": "Male Wistar Han IGS (International Genetic Standard) rats (Crl:WI(Han)) at the weight of 350-400 g were purchased from Charles River Laboratories. Rats were acclimated to the facility for 7 days. Animals were housed in groups of 3 animals at 25° C. with a 12:12 h light-dark cycle. They were fed a standard laboratory diet containing 18.2% protein and 3.0% fat with an energy content of 15.8 MJ/kg (NAFAG 3890, Kliba, Basel, Switzerland). Food and water were provided ad libitum. […] Pumps were filled with the solution and kept for several hours at 37° C. in PBS until surgical implantation. Rats were treated subcutaneously with Temgesic at a dose of 0.02 mg/kg with a volume of 1 ml/kg at least 30 minutes before surgery, and then the pumps filled with the solution indicated above were implanted subcutaneously into the back of the rats under anesthesia with isoflurane at a concentration of 3%. Temgesic was administered subcutaneously to the rats 24 h and 48 h after the surgery. Body weights were measured twice per week. Clips were removed 10 days after the surgery under anesthesia. Four weeks after the treatment, the rats were euthanized with CO2, and the tibialis anterior, gastrocnemius and soleus muscles, heart and brain were dissected and weighed. Brain weight was used for normalization of organ weights. Results are expressed as mean +/−SEM. […]"}, "[5]": {"system": "left atria from Dunkin Hartley Guinea pig", "test": "Left atrium contraction assay (Ricerca, Adrenergic beta1)"}, "Wistar Han rats": {"system": "Wistar Han rats", "test": "Heart rate in vivo in rats after s.c. bolus", "details": "rat, s.c. bolus up to 0.3 mg/kg", "excerpt": "Wistar Han (W-H) IGS (International Genetic Standard) rats (Crl:WI(Han)) were purchased from Charles River Laboratories. Femoral arterial and venous catheters were chronically implanted and exteriorized through a spring tether-swivel system and housed in specialized cages. Arterial catheter was connected to a pressure transducer to continuously measure pulse pressure, mean arterial pressure and heart rate, which was derived from the blood pressure signal, via a digital data acquisition system. Compounds were administered via s.c catheter implanted through the skin buttun. Values are expressed as means±SEM (n=3)."}, "Rhesus monkeys": {"system": "Rhesus monkeys", "test": "Heart rate in vivo in rhesus monkeys after s.c. bolus", "details": "rhesus monkey, s.c. bolus up to 0.03 mg/kg", "description": "Rhesus monkeys, 24 females with body weight around 4 to 8 kg, were randomized into 4 groups of n=6. The animals were restrained on a chair up to 4 hours after single subcutaneous administration of compounds, and then returned to their pens. Heart rates were measured using a Surgivet V3304 device. Values are expressed as means±SEM (n=6)."}, "[6]": {"biological_target": "T3, human adrenergic Alpha1A (α1A AR) (Homo sapiens, UniProt P35348)", "T3 sequence (P35348 1-466)": "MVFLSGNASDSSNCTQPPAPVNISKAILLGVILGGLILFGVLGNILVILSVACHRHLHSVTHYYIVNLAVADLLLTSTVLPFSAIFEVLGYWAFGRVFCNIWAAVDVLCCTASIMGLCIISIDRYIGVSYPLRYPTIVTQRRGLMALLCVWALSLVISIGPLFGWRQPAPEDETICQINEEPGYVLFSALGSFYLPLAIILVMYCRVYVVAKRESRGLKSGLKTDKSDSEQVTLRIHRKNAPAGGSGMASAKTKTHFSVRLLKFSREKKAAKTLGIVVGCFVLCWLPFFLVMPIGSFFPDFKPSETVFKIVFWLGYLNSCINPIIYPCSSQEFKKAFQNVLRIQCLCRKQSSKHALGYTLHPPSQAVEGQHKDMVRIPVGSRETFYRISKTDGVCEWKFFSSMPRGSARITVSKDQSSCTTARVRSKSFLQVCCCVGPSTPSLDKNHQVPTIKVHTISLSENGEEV", "test": "Ca2+ FLIPR assay in human adrenergic Alpha1A CHO-K1 cell line (Test 1)", "assay_type": "cell-based", "details": "read-out: CHO cells EC50 α1A AR", "protocol": "Compounds acting as agonists induce a transient increase of intracellular calcium. This was recorded on the FLIPR system. A measurement of the signal baseline was first recorded every second for 2 minutes before the injection of the compounds. […] Low controls (unstimulated cells) were determined with the addition of 5 μL of assay buffer."}}, "note": "Counter-ions that a name gives are not always drawn."}
{"molecule": "CCCCOc1ccc(CC(C)(C)NCC(O)c2cc(O)cc3[nH]c(=O)sc23)cc1", "note": "(racemic) [Compound A/B]", "values": [{"measurement": "Serotonin 5-HT2C Binding", "setting": "human 5-HT2C receptor", "value": 1.7, "unit": "µM"}, {"measurement": "EC50", "setting": "[1]", "value": 25, "unit": "nM"}, {"measurement": "EC50", "setting": "[2]", "value": 11, "unit": "nM"}, {"measurement": "EC50", "setting": "[3]", "value": 684, "unit": "nM"}]}
{"molecule": "CCCCOc1ccc(CC(C)(C)NC[C@H](O)c2cc(O)cc3[nH]c(=O)sc23)cc1", "note": "[Compound A (R) acetate salt, (R)-7-(2-(1-(4-butoxyphenyl)-2-methylpropan-2-ylamino)-1-hydroxyethyl)-5-hydroxybenzo[d]thiazol-2(3H)-one acetate salt]", "values": [{"measurement": "Emax", "setting": "[2]; CHO, read-out: CHO cells Emax % β2 AR, cAMP, compared to isoprenaline", "value": 91, "unit": "%"}]}
{"molecule": "CCCCOc1ccc(CC(C)(C)NC[C@H](O)c2cc(O)cc3[nH]c(=O)sc23)cc1.O=C(O)CO", "note": "[Compound A glycolate salt]", "values": [{"measurement": "solubility in H2O, Conc", "setting": "[4]; pH 5.1", "value": 13.1, "unit": "mg/mL"}, {"measurement": "solubility in H2O, Conc", "setting": "[4]; pH 5.3", "value": 6.39, "unit": "mg/mL"}, {"measurement": "solubility in H2O, Conc", "setting": "[4]; pH 5.4", "value": 4.47, "unit": "mg/mL"}]}
{"molecule": "CCCCOc1ccc(CC(C)(C)NC[C@H](O)c2cc(O)cc3[nH]c(=O)sc23)cc1", "note": "[Compound A, (R)-7-(2-(1-(4-butoxyphenyl)-2-methylpropan-2-ylamino)-1-hydroxyethyl)-5-hydroxybenzo[d]thiazol-2(3H)-one]", "values": [{"measurement": "solubility in H2O, Conc", "setting": "[4]; pH 7.3", "value": "<0.01", "unit": "mg/mL"}, {"measurement": "solubility in H2O, Conc", "setting": "[4]; pH 7.8", "value": "<0.01", "unit": "mg/mL"}, {"measurement": "skeletal muscle mass and heart mass increase (FIG. 1)", "setting": "Male Wistar Han IGS rats", "value": "induces skeletal muscle hypertrophy with minimum impact on heart mass"}, {"measurement": "EC50", "setting": "[5]; Cavia porcellus, guinea pig left atria, n = 2", "value": "> 10", "unit": "µM"}, {"measurement": "effects on left atrium contraction", "setting": "[5]; up to 10 μM", "value": "no effects"}, {"measurement": "heart rate increase", "setting": "Wistar Han rats", "value": "less heart rate increases compared to formoterol"}, {"measurement": "heart rate increase", "setting": "Rhesus monkeys", "value": "less heart rate increase compared to formoterol"}, {"measurement": "Serotonin 5-HT2C Binding", "setting": "human 5-HT2C receptor", "value": 11, "unit": "µM"}]}
{"molecule": "CCCCOc1ccc(CC(C)(C)NC[C@@H](O)c2cc(O)cc3[nH]c(=O)sc23)cc1", "note": "[Compound B (S)]", "values": [{"measurement": "EC50", "setting": "[6]", "value": "> 30", "unit": "µM"}, {"measurement": "Serotonin 5-HT2C Binding", "setting": "human 5-HT2C receptor", "value": 0.8, "unit": "µM"}, {"measurement": "EC50", "setting": "[1]", "value": 19.7, "unit": "nM"}, {"measurement": "EC50", "setting": "[2]", "value": 950, "unit": "nM"}, {"measurement": "EC50", "setting": "[3]", "value": "> 10000", "unit": "nM"}]}
